In ChEMBL document CHEMBL1121385, “Phenylalkylamines with potential psychotherapeutic utility. 2. Nuclear substituted 2-amino-1-phenylbutanes” (1980):

What was measured:
[1] = tested on: Felis catus; test: Numerical score on cat behavior was measured at a dose of 10 mg/kg, administered subcutaneously.; type: functional; details: route subcutaneous
[2] = species: Rattus norvegicus; test: Evaluated for intertrial interval activity in rat; NE means no statistically significant activity; type: functional, organism-based
[3] = tested on: Rattus norvegicus; test: Minimal dose (ip) required to produce a significant increase in avoidance responding in rat; type: functional; details: read-out: MED
[4] = species: Rattus norvegicus; test: Potency to produce a significant increase in avoidance responding in rat relative to BL-3912A; type: functional
[5] = tested on: Felis catus; test: Numerical score on cat behavior was measured at a dose of 10 mg/kg administered subcutaneously; type: functional; details: route subcutaneous
[6] = species: Rattus norvegicus; test: Evaluated for intertrial interval activity in rat; statistically significant increase; type: functional, organism-based
[7] = species: Rattus norvegicus; test: Evaluated for intertrial interval activity in rat; NE means no statistically significant effect; type: functional, organism-based

CCCc1cc(OC)c(CC(N)CC)cc1OC.Cl (racemic)
Cat score [1]: 2.5

CCCCc1cc(OC)c(C[C@H](N)CC)cc1OC.Cl
Cat score [1]: 0 | ITI activity [2]: No effect | minimal effective dose [3]: > 20 mg/kg | Relative potency [4]: <0.25

CCc1cc(OC)c(CC(N)CC)cc1OC.Cl (racemic)
Cat score [5]: 4

CCC(N)Cc1cc(OC)ccc1OC.Cl (racemic)
Cat score [1]: 2

CCc1cc(OC)c(C[C@H](N)CC)cc1OC.Cl
Cat score [5]: 3.3 | ITI activity [6]: Statistically significant increase | minimal effective dose [3]: 2 mg/kg | Relative potency [4]: 2.5

CC[C@H](N)Cc1cc(OC)c(C)cc1OC.Cl
Cat score [5]: 0.5

CCC(N)Cc1cc(OC)c(SC)cc1OC.Cl (racemic)
Cat score [1]: 1

CC[C@@H](N)Cc1cc(OC)c(Cl)cc1OC.Cl
Cat score [1]: 6.5 | ITI activity [7]: No effect | minimal effective dose [3]: 20 mg/kg | Relative potency [4]: 0.25

CC[C@@H](N)Cc1cc(OC)c([N+](=O)[O-])cc1OC.Cl
Cat score [1]: 3.5

CC[C@@H](N)Cc1cc(OC)c(Br)cc1OC.Cl
Cat score [5]: 3.5 | ITI activity [6]: Statistically significant increase | minimal effective dose [3]: 2 mg/kg | Relative potency [4]: 2.5

CC[C@@H](N)Cc1cc(OC)c(C(C)C)cc1OC.Cl
Cat score [1]: 0 | ITI activity [7]: No effect | minimal effective dose [3]: > 20 mg/kg | Relative potency [4]: <0.25

CC[C@@H](N)Cc1cc(OC)c(OC(C)C)cc1OC.Cl
Cat score [1]: 0

CCC(N)Cc1cc(OC)c(Br)cc1OC.Cl (racemic)
Cat score [1]: 2

CCC(N)Cc1cc(OC)ccc1OC.Cl (single isomer, unassigned)
Cat score ([1]; 10 mg/kg): 2

CC[C@@H](N)Cc1cc(OC)ccc1OC.Cl
Cat score ([1]; 10 mg/kg): 0.5

CCc1cc(OC)c(C[C@@H](N)CC)cc1OC.Cl
Cat score [1]: 1

CC[C@H](N)Cc1cc(OC)c(SC)cc1OC.Cl
Cat score [1]: 1

CC[C@@H](N)Cc1cc(OC)c(I)cc1OC.Cl
Cat score [1]: 2.5

CCCOc1cc(OC)c(C[C@H](N)CC)cc1OC.Cl
Cat score [1]: 1.5

CC[C@@H](N)Cc1cc(OC)c(N)cc1OC.Cl
Cat score [1]: 1.5

CC[C@H](N)Cc1cc(OC)c(Br)cc1OC.Cl
Cat score [1]: 2

CCCc1cc(OC)c(C[C@H](N)CC)cc1OC.Cl
Cat score [1]: 0.5 | ITI activity [6]: Statistically significant increase | minimal effective dose [3]: 1 mg/kg | Relative potency [4]: 5

CCC(N)Cc1cc(OC)c(C(C)C)cc1OC.Cl (racemic)
Cat score [1]: 0.5

CCCOc1cc(OC)c(CC(N)CC)cc1OC.Cl (racemic)
Cat score [1]: 0

CCOc1cc(OC)c(C[C@H](N)CC)cc1OC.Cl
Cat score [1]: 1.5

CC[C@@H](N)Cc1cc(OC)c(O)cc1OC.Cl
Cat score [1]: 0.5

CC[C@@H](N)Cc1cc(OC)c(C)cc1OC.Cl [DIMOXAMINE HYDROCHLORIDE]
Cat score [5]: 1.3 | ITI activity [7]: No effect | minimal effective dose [3]: 5 mg/kg | Relative potency [4]: 1
